Tested on: CTLL-2 (ATCC TIB-214) cytotoxic T lymphocytes
Test: In vitro screening platform for immunomodulation, CTLL-2 T-lymphocyte density
Format: cell-based
Protocol: An in vitro screening platform for immunomodulation was used to evaluate mebenzadole for efficacy. CTLL-2 (ATCC® TIB-214™) are cytotoxic T lymphocytes that were purchased and cultured according to ATCC protocol. […] The maximum volume added to the 1 mL of each of the 12 wells was 10 μL for the highest test concentration of mebenzadole and the control.

COC(=O)Nc1nc2ccc(C(=O)c3ccccc3)cc2[nH]1 [mebendazole, methyl 5-benzoylbenzimidazole-2-carbamate]
effect on T-lymphocytes (FIG. 1) (CTLL-2 cell culture, 1 nM to 1 μM): dose dependently kill T-lymphocytes | test concentration at which significant reduction of T-lymphocytes starts (CTLL-2 cell culture, mebendazole in DMSO, 1 nM, 5 nM, 500 nM and 1 μM tested vs DMSO control): 1 nM | concentration at which significant reduction of CD+8 T cells starts, as mass concentration (in DMSO, equivalent given for 1 nM): 0.295 μg per mL
